Experimental data from article PMC10747725, “The Synthesis, In Vitro Bio-Evaluation, and In Silico Molecular Docking Studies of Pyrazoline–Thiazole Hybrid Analogues as Promising Anti-α-Glucosidase and Anti-Urease Agents” (Pharmaceuticals, 2023).
Read-outs that look alike come from different tables or passages of the source.

Experiments:
[1] = target: urease (Canavalia ensiformis, UniProt P07374); experiment: biochemical
Method: During the experiment, 55 L of buffer solution containing 100 mM of urea was combined with 25 L of enzyme solution to prepare reaction mixtures. A volume of 5 L containing 1 mM concentrations of recently produced compounds was then added to these mixtures. After 15 min of incubation at 30 °C, the reactions were allowed to occur in 96-well plates. The detection of ammonia generation by urease was carried out by using the Indophenol technique. A phenol reagent containing 1% w/v phenol and 0.005% w/v sodium nitroprusside was added to each well along with 70 µL of an alkali reagent containing 0.5% w/v NaOH and 0.1% active chloride NaOCl. Utilizing a microplate reader manufactured by Molecular Device in the United States, the increased absorbance was measured at 630 nm after another 50 min. In triplicate, the aforementioned procedures were performed using a constant end volume of […]. The final data, representing the rate at which the absorbance changed per minute, were analysed with the SoftMax Pro program by Molecular Device, New York, NY, USA. In alkaline conditions with a pH of 8.2, the experiments were conducted using 0.01 M K2HPO4·3H2O, 1 mM EDTA, and 0.01 M LiCl. A conventional inhibitor of urease, thiourea, was used in this study to determine the percentage of inhibition.

[2] = target: α-glucosidase; experiment: α-Glucosidase inhibitory assay; format: biochemical; conditions: in vitro; standard acarbose; N.A * = Not active; read-out: α-Glucosidase IC50 (µM ±SEM)
Method: A procedure based on the previously reported procedure with minor modifications was used to determine the inhibitory capacity of the newly designed derivatives of benzothiazole-derived pyrazoline-based thiazole (1–17). For 20 min at 37 °C, […] in 100 mM of phosphate buffer (pH 6.8) for 20 min. The reaction mixture was then incubated for 1 h at 37 °C with 250 mL of 4-nitrophenyl-b-D-glucopyranoside solution and 250 mL of 1% starch dissolved in 100 mM of phosphate buffer (pH 6.8), respectively. Following this, the reaction mixture was heated for 10 min with 1.0 mL of 3,5-dinitrosalicylic acid colouring reagent. The absorbance of the final reaction mixture was determined for α-glucosidase at 405 nm. To correct the absorbance, a blank was prepared. […] A percentage of the inhibitory activity was calculated using a control sample without the inhibitors.

urease, sequence (P07374 whole entry, looked up): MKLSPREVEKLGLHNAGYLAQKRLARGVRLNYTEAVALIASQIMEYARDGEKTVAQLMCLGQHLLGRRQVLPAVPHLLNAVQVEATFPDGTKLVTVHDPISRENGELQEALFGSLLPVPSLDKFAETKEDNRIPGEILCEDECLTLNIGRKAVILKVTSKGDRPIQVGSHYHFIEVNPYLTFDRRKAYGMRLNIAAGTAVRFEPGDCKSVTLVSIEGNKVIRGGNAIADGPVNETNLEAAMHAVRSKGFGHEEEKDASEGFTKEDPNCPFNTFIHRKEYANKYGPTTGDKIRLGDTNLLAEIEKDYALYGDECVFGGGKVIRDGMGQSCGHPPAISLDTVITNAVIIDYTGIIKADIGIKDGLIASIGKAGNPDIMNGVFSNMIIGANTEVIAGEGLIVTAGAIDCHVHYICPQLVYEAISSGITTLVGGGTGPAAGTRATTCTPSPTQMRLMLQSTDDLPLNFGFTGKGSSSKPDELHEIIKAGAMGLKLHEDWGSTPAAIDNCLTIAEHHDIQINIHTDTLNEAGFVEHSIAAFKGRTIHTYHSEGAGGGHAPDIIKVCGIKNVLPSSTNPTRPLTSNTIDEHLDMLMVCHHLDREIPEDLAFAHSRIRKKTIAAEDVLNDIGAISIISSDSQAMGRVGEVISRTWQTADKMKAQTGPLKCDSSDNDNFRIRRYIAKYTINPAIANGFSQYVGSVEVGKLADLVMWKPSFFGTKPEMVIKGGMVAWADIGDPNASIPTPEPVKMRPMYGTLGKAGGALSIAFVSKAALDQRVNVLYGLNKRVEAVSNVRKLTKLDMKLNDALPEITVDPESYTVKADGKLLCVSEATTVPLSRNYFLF

| SMILES | IC50 [1] [µM] | melting point [°C] | IC50 [2] [µM] | IC50 ([1]; in vitro, standard thiourea, N.A * = Not active, read-out: Urease IC50 (µM ± SEM)) [µM] |
| --- | --- | --- | --- | --- |
| O=[N+]([O-])c1cc(Cl)ccc1-c1csc(N2N=C(c3cc(Cl)cnc3Cl)CC2c2nc3ccccc3s2)n1 (stereo not shown) [Compound 9, 2-(1-(4-(4-Chloro-2-nitrophenyl)thiazol-2-yl)-3-(2,5-dichloropyridin-3-yl)-4,5-dihydro-1H-pyrazol-5-yl)benzo[d]thiazole] | 29.4 ± 0.1 | 230 to 231 | 4.4 ± 0.3 | – |
| Clc1cnc(Cl)c(C2=NN(c3nc(-c4ccc5ccccc5c4)cs3)C(c3nc4ccccc4s3)C2)c1 (stereo not shown) [Compound 16, 2-(3-(2,5-Dichloropyridin-3-yl)-1-(4-(naphthalen-2-yl)thiazol-2-yl)-4,5-dihydro-1H-pyrazol-5-yl)benzo[d]thiazole] | – | 243 to 244 | – | – |
| COc1ccc(OC)c(-c2csc(N3N=C(c4cc(Cl)cnc4Cl)CC3c3nc4ccccc4s3)n2)c1 (stereo not shown) [Compound 10, 2-(3-(2,5-Dichloropyridin-3-yl)-1-(4-(2,5-dimethoxyphenyl)thiazol-2-yl)-4,5-dihydro-1H-pyrazol-5-yl)benzo[d]thiazole] | 33.7 ± 0.1 | 234 to 235 | 8.9 ± 0.2 | – |
| O=[N+]([O-])c1cc(Br)ccc1-c1csc(N2N=C(c3cc(Cl)cnc3Cl)CC2c2nc3ccccc3s2)n1 (stereo not shown) [Compound 1, 2-(1-(4-(4-Bromo-2-nitrophenyl)thiazol-2-yl)-3-(2,5-dichloropyridin-3-yl)-4,5-dihydro-1H-pyrazol-5-yl)benzo[d]thiazole] | 41.5 ± 1.7 | 233 to 234 | 13.1 ± 0.4 | – |
| Cc1cc(-c2csc(N3N=C(c4cc(Cl)cnc4Cl)CC3c3nc4ccccc4s3)n2)cc(C)c1Br (stereo not shown) [Compound 15, 2-(1-(4-(4-Bromo-3,5-dimethylphenyl)thiazol-2-yl)-3-(2,5-dichloropyridin-3-yl)-4,5-dihydro-1H-pyrazol-5-yl)benzo[d]thiazole] | – | 221 to 222 | – | – |
| Clc1cnc(Cl)c(C2=NN(c3nc(-c4ccc(OCc5ccccc5)cc4)cs3)C(c3nc4ccccc4s3)C2)c1 (stereo not shown) [Compound 13, 2-(1-(4-(4-(Benzyloxy)phenyl)thiazol-2-yl)-3-(2,5-dichloropyridin-3-yl)-4,5-dihydro-1H-pyrazol-5-yl)benzo[d]thiazole] | – | 242 to 243 | – | – |
| Fc1ccccc1-c1csc(N2N=C(c3cc(Cl)cnc3Cl)CC2c2nc3ccccc3s2)n1 (stereo not shown) [Compound 11, 2-(3-(2,5-Dichloropyridin-3-yl)-1-(4-(2-fluorophenyl)thiazol-2-yl)-4,5-dihydro-1H-pyrazol-5-yl)benzo[d]thiazole] | – | 221 to 222 | – | – |
| Cc1ccc(-c2csc(N3N=C(c4cc(Cl)cnc4Cl)CC3c3nc4ccccc4s3)n2)cc1 (stereo not shown) [Compound 3, 2-(3-(2,5-Dichloropyridin-3-yl)-1-(4-(p-tolyl)thiazol-2-yl)-4,5-dihydro-1H-pyrazol-5-yl)benzo[d]thiazole] | 33.2 ± 3.8 | 227 to 228 | 7.5 ± 0.1 | – |
| Oc1cc(Cl)cc(Cl)c1-c1csc(N2N=C(c3cc(Cl)cnc3Cl)CC2c2nc3ccccc3s2)n1 (stereo not shown) [Compound 14, 2-(2-(5-(Benzo[d]thiazol-2-yl)-3-(2,5-dichloropyridin-3-yl)-4,5-dihydro-1H-pyrazol-1-yl)thiazol-4-yl)-3,5-dichlorophenol] | 21.8 ± 2.9 | 238 to 239 | 3.4 ± 0.1 | – |
| Clc1cnc(Cl)c(C2=NN(c3nc(-c4cccc(Cl)c4Cl)cs3)C(c3nc4ccccc4s3)C2)c1 (stereo not shown) [Compound 17, 2-(1-(4-(2,3-Dichlorophenyl)thiazol-2-yl)-3-(2,5-dichloropyridin-3-yl)-4,5-dihydro-1H-pyrazol-5-yl)benzo[d]thiazole] | 31.3 ± 0.4 | 236 to 237 | 6.8 ± 0.2 | – |
| NC(N)=S [Thiourea, thiourea, reference compound] | – | – | – | 31.4 ± 2.5 |
| Cc1ccc(C)c(-c2csc(N3N=C(c4cc(Cl)cnc4Cl)CC3c3nc4ccccc4s3)n2)c1 (stereo not shown) [Compound 2, 2-(3-(2,5-Dichloropyridin-3-yl)-1-(4-(2,5-dimethylphenyl)thiazol-2-yl)-4,5-dihydro-1H-pyrazol-5-yl)benzo[d]thiazole] | 37.2 ± 1.9 | 219 to 220 | 14.2 ± 0.1 | – |
| FC(F)(F)c1ccc(-c2csc(N3N=C(c4cc(Cl)cnc4Cl)CC3c3nc4ccccc4s3)n2)cc1 (stereo not shown) [Compound 6, 2-(3-(2,5-Dichloropyridin-3-yl)-1-(4-(4-(trifluoromethyl)phenyl)thiazol-2-yl)-4,5-dihydro-1H-pyrazol-5-yl)benzo[d]thiazole] | 14.3 ± 3.9 | 225 to 226 | 2.5 ± 0.3 | – |
| O=[N+]([O-])c1ccc(-c2csc(N3N=C(c4cc(Cl)cnc4Cl)CC3c3nc4ccccc4s3)n2)cc1 (stereo not shown) [Compound 4, 2-(3-(2,5-Dichloropyridin-3-yl)-1-(4-(4-nitrophenyl)thiazol-2-yl)-4,5-dihydro-1H-pyrazol-5-yl)benzo[d]thiazole] | 23.3 ± 2.4 | 232 to 233 | 4.1 ± 0.3 | – |
| Oc1cc(F)ccc1-c1csc(N2N=C(c3cc(Cl)cnc3Cl)CC2c2nc3ccccc3s2)n1 (stereo not shown) [Compound 7, 2-(2-(5-(Benzo[d]thiazol-2-yl)-3-(2,5-dichloropyridin-3-yl)-4,5-dihydro-1H-pyrazol-1-yl)thiazol-4-yl)-5-fluorophenol] | 19.2 ± 0.1 | 228 to 229 | 3.2 ± 0.1 | – |
| O=[N+]([O-])c1ccccc1-c1csc(N2N=C(c3cc(Cl)cnc3Cl)CC2c2nc3ccccc3s2)n1 (stereo not shown) [Compound 5, 2-(3-(2,5-Dichloropyridin-3-yl)-1-(4-(2-nitrophenyl)thiazol-2-yl)-4,5-dihydro-1H-pyrazol-5-yl)benzo[d]thiazole] | 32.5 ± 2.1 | 224 to 225 | 6.7 ± 0.3 | – |
| Fc1ccc(-c2csc(N3N=C(c4cc(Cl)cnc4Cl)CC3c3nc4ccccc4s3)n2)cc1 (stereo not shown) [Compound 12, 2-(3-(2,5-Dichloropyridin-3-yl)-1-(4-(4-fluorophenyl)thiazol-2-yl)-4,5-dihydro-1H-pyrazol-5-yl)benzo[d]thiazole] | 22.3 ± 0.8 | 226 to 227 | 3.5 ± 0.1 | – |
| CN(C)c1ccc(-c2csc(N3N=C(c4cc(Cl)cnc4Cl)CC3c3nc4ccccc4s3)n2)cc1 (stereo not shown) [Compound 8, 4-(2-(5-(Benzo[d]thiazol-2-yl)-3-(2,5-dichloropyridin-3-yl)-4,5-dihydro-1H-pyrazol-1-yl)thiazol-4-yl)-N,N-dimethylaniline] | 39.2 ± 0.6 | 231 to 232 | – | – |
